Reference: ChEMBL document CHEMBL5625265, “Exploring 2-methyl-substituted vitamin K3 derivatives with potent inhibitory activity against the 3CL protease of SARS-CoV-2” (Bioorg Med Chem Lett, 2024)
The source made the active and inactive calls. The calls are words filed in the database; no cut-off is given here.

Legend:
[1] = target: Replicase polyprotein 1ab (Severe acute respiratory syndrome coronavirus 2) (UniProt P0DTD1); assay: Inhibition of SARS-CoV-2 3CL protease at 10 uM using Dabcyl-KTSAVLQSGFRKME-Edans as a substrate preincubated for 30 mins followed by substrate addition and measured after for 4 hrs by FRET assay relative to control; details: time 4.5 hrs
[2] = target: Replicase polyprotein 1ab (Severe acute respiratory syndrome coronavirus 2, UniProt P0DTD1); assay: Inhibition of SARS-CoV-2 3CL protease using Dabcyl-KTSAVLQSGFRKME-Edans as a substrate preincubated for 30 mins followed by substrate addition and measured after for 4 hrs by FRET assay

`O=C1C=C(C2CC2)C(=O)c2ccccc21` was tested, and the inhibition [1] was “Active”.

`CC(=O)CCC1=CC(=O)c2ccccc2C1=O` was tested, and the inhibition [1] was “Active”.

`CCSC1=CC(=O)c2ccccc2C1=O` was tested, and the inhibition [1] was “Active” and the IC50 [2] was 5.35 µM.

In the case of `O=C1C=C(Oc2ccccc2)C(=O)c2ccccc21`, the inhibition [1] is reported as “Active”.

With `O=C1C=C(C2CCC2)C(=O)c2ccccc21` the inhibition [1] was “Active”.

In the case of `O=C1C=C(Sc2ccccc2)C(=O)c2ccccc21`, the inhibition [1] is reported as “Active” and the IC50 [2] is reported as 0.964 µM.

`CC1=CC(=O)c2ccccc2C1=O` showed an inhibition [1] of 40%.
